Results published in US20210085789A1, “PHARMACEUTICAL COMPOSITION FOR CANCER TREATMENT” (SEOUL NATIONAL UNIVERSITY R&DB FOUNDATION, priority 2017, published 2021).

Test system: HeLa cells
Test: CCK-8 cell viability after light irradiation (dose-dependent PDT effect)
Assay type: cell-based, human
Details: 660 nm LED 30 mW cm−2 for 10 minutes
Procedure: In order to determine viability of cells treated with FA-MnO2, HeLa cells (1×10^4 cells/well) were prepared in three (3) 96-well plates for 24 hours, and cultured with FA-MnO2 at different concentrations as well as a complete medium. After incubation for 12 hours, the cells were gently washed with 1×PBS and CCK-8 analysis solution as well as a serum-free medium were added thereto for one hour, followed by measuring absorbance at wavelengths of 450 nm and 670 nm using a micro-plate reader (Molecular Devices, Inc., USA).
Next, in order to determine quantitative cell viability associated with photodynamic effects of FA-MnO2/ZnPc, HeLa cells (1×10^4 cells/well) were seeded on a 96-well plate, incubated for 24 hours, and then, treated with FA-MnO2/ZnPc and ZnPc at various concentrations. After the incubation for 12 hours, each well was irradiated with 660 nm LED (Mikwang Electronics, Korea) at 30 mW cm^−2 for 10 minutes. After additional incubation in a serum-containing medium for 12 hours, analysis of CCK-8 cell vitality was assessed in the same manner as described above.

IC50: 115.1 ± 3.4 µg/mL
SMILES: [Zn+2].c1ccc2c(c1)-c1nc-2nc2[n-]c(nc3nc([n-]c4nc(n1)-c1ccccc1-4)-c1ccccc1-3)c1ccccc21 [ZnPc, zinc phthalocyanine]
